We go through 17 compounds from patent US11814367B2, “Inhibitors of glycogen synthase 1 (GYS1) and methods of use thereof” (Maze Therapeutics, Inc., priority 2021, dated 2023).

Each structure is given as a SMILES string.

The target of test [1] is hGYS1 enzyme (recombinant hGYS1/GN1 protein) (Homo sapiens (Human), UniProt P13807). As to the kind of experiment: GYS1 coupled enzyme assay (PK/LDH). The settings on record: hGYS1/GN1 50 nM, UDP-Glucose 0.8 mM, G6P 1 mM; geometric mean of at least 2 runs. It is filed as biochemical.
Test [2] deals with hGYS1 enzyme / glycogen synthesis in HeLa cells. Briefly: GYS1 cell based assay (glycogen synthesis, Glucose-glo). Details: species or system human. To be noted: 24 h incubation, 20 mM glucose, geometric mean of at least 2 runs. An excerpt: The GYS1 cell based assay is a bioluminescent assay that quantifies the glucose resulting from glycogen digestion; the quantified glucose is an indirect measure of GYS1 glycogen synthesis. Newly synthesized glycogen is digested using Glucoamylase; the resulting glucose is quantified by using the Glucose-glo assay kit from Promega. Glucose-glo works by coupling glucose oxidation and NADH production with a bioluminescent system that is activated with NADH. Glucose is oxidized by Glucose dehydrogenase and the reaction reduces NAD+ to NADH; NADH activates Reductase which reduces a pro-luciferin Reductase Substrate to luciferin. Luciferin is detected in a luciferase reaction using Ultra-Glo rLuciferase and ATP, and the luminesce produced is proportional to the glucose in the sample. The luminescence is measured as a single point read in a plate reader.
Compounds that inhibit the hGYS1 enzyme and, subsequently, the glycogen synthesis in cells, were tested using assay ready plates (white, clear bottom 384 well plates) in a final DMSO reaction volume of 1% DMSO. Compounds in the assay ready plates were mixed with media with no additives, except for 20 mM glucose prior to cell addition. HeLa cells were starved in media with no additives, except for 1× Glutamax for 24 h. Starved HeLa cells were plated, in a 1:1 ratio to the media in the assay ready plate and incubated for 24 h at 37° C. and 5% C02. Cells were washed in 1×PBS buffer and lysed in lysis buffer containing 50% 1×PBS and 25% 0.3 N HCl of the final volume in the well or reaction volume; cells were incubated with lysis buffer for 10 minutes and quenched with the remaining 25% of the reaction volume that consisted of 450 mM Tris pH 8.0. Lysates were mixed in a 1:1 ratio with Glucoamylase in 100 mM Sodium Acetate buffer, pH 5.3; the mixture was incubated for 1 h at 37° C. The digested lysate was mixed in a 1:1 ratio with Glucose-glo detection mixture as per vendor recommendations (Luciferase detection buffer, Reductase, Reductase substrate, Glucose dehydrogenase, and NAD) in read-out plates (solid white 384-well plates) and incubated for 1 h at RT. The plates were read using a plate reader with luminescence capabilities. Each compound concentration Relative Luminescence Unit (RLU) was averaged and normalized to the average RLU of the positive and negative controls to obtain a percentage inhibition. The normalized data vs. concentration was plotted; to determine the half-maximal concentration (IC50), the Levenberg-Marquardt algorithm was used to fit a Hill equation to the dose response data.
The results are shown in Table 3 below, which reports the IC50 of each compound. Unless otherwise specified, IC50 values are reported as the geometric mean of at least 2 assay runs on separate days. As shown in the table below, the compounds of the present invention are potent inhibitors of human GYS1. Unless otherwise specified, IC50 values are reported as the geometric mean of at least two assay runs on separate days. Each run represents the average of a technical replicate, where each compound was assayed twice in the same plate. A superscript “#” symbol in Table 3 indicates results from a single assay run.

Sequence of hGYS1 enzyme (recombinant hGYS1/GN1 protein) (P13807 whole entry): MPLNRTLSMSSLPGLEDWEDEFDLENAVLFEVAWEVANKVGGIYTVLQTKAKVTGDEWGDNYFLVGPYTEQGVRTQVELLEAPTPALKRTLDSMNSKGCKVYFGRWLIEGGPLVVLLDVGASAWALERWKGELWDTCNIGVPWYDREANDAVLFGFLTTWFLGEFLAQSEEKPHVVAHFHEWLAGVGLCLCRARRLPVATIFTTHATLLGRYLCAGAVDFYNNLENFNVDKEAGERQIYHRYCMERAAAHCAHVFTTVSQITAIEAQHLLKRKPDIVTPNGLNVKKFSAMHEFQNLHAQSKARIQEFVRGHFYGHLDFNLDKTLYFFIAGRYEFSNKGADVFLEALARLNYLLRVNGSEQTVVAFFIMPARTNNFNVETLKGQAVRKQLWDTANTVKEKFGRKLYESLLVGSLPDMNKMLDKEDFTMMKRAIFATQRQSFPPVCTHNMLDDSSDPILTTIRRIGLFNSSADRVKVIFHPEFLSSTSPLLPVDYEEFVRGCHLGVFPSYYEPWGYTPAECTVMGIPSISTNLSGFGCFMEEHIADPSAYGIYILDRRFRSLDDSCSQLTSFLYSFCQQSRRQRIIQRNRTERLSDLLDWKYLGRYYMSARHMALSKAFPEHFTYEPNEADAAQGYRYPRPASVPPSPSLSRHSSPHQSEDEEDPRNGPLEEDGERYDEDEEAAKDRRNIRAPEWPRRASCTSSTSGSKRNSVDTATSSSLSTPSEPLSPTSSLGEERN
Sequence of hGYS1 enzyme (recombinant hGYS1/GN1 protein) (P46976 whole entry partner): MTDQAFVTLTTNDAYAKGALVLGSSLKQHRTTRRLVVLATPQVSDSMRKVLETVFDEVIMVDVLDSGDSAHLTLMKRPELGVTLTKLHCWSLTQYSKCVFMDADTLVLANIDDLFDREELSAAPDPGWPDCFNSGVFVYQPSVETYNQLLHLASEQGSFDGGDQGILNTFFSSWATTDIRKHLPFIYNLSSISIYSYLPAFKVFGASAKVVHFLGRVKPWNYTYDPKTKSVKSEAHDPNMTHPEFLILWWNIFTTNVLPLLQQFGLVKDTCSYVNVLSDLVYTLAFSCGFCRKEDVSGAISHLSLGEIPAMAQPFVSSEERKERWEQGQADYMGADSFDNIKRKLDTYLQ

As for `CC(C)c1ccc([C@H](NC(=O)[C@@H]2C[C@@H](F)CN2C(=O)Cc2cnn[nH]2)c2ccccc2)nc1F` (relative stereo) [Compound 776, (2S,4R)-4-fluoro-N-[(R*)-[6-fluoro-5-(propan-2-yl)pyridin-2-yl](phenyl)methyl]-1-[2-(1H-1,2,3-triazol-5-yl)acetyl] pyrrolidine-2-carboxamide], the IC50 in test [1] is 1150 nM; in test [2] (Homo sapiens, HeLa, 24 h) it was over 9010 nM.

In the case of `O=C(NC(c1ccccc1)c1ccc(C2CC2)cn1)[C@@H]1C[C@@H](F)CN1C(=O)Cc1cnn[nH]1` (single isomer, unassigned) [Compound 498, (2S,4R)-1-(2-(1H-1,2,3-triazol-5-yl)acetyl)-N—((R) or (S)-(5-cyclopropylpyridin-2-yl)(phenyl)methyl)-4-fluoropyrrolidine-2-carboxamide], the IC50 in test [1] and in test [2] was over 10000 nM in each case. `CC(C)c1cnc(C(NC(=O)[C@@H]2C[C@@H](F)CN2C(=O)Cc2cnn[nH]2)c2ccccc2)cc1C(F)(F)F` (single isomer, unassigned) [Compound 608, (2S,4R)-4-fluoro-N-[(S) or (R)-phenyl[5-(propan-2-yl)-4-(trifluoromethyl)pyridin-2-yl]methyl]-1-[2-(1H-1,2,3-triazol-5-yl)acetyl]pyrrolidine-2-carboxamide]: the IC50 was 2860 nM in test [1] and over 10000 nM in test [2] (Homo sapiens, HeLa, 24 h). Consider `O=C(NC(c1ccccc1)c1ccc(C2CCC2)cn1)[C@@H]1C[C@@H](F)CN1C(=O)Cc1cnn[nH]1` (single isomer, unassigned) [Compound 610, (2S,4R)-N-[(S) or (R)-(5-cyclobutylpyridin-2-yl)(phenyl)methyl]-4-fluoro-1-[2-(1H-1,2,3-triazol-5-yl)acetyl]pyrrolidine-2-carboxamide], for which the IC50 amounted to 107 nM in test [1] and 1010 nM in test [2] (Homo sapiens, HeLa, 24 h). `COc1nc(C(NC(=O)[C@@H]2C[C@@H](F)CN2C(=O)Cc2cnn[nH]2)c2ccccc2)ccc1C(C)C` (single isomer, unassigned) [Compound 612, (2S,4R)-4-fluoro-N-[(S) or (R)-[6-methoxy-5-(propan-2-yl)pyridin-2-yl] (phenyl)methyl]-1-[2-(1H-1,2,3-triazol-5-yl)acetyl]pyrrolidine-2-carboxamide]: the IC50 in test [1] is 2180 nM; in test [2] (Homo sapiens, HeLa, 24 h) it was over 29000 nM. Regarding `Cc1cc(C(NC(=O)[C@@H]2C[C@@H](F)CN2C(=O)CNC(=O)N(C)C)c2cccnc2N)ccc1C(C)C` (single isomer, unassigned) [Compound 622, (2S,4R)-N-[(R) or (S)-(2-aminopyridin-3-yl)[3-methyl-4-(propan-2-yl)phenyl]methyl]-1-{2-[(dimethylcarbamoyl)amino]acetyl}-4-fluoropyrrolidine-2-carboxamide], the IC50 in test [1] is 443 nM; in test [2] (Homo sapiens, HeLa, 24 h), over 10000 nM. `Cc1cc(C(NC(=O)[C@@H]2C[C@@H](F)CN2C(=O)Cc2cnn[nH]2)c2cccnc2N)ccc1C(C)C` (single isomer, unassigned) [Compound 624, (2S,4R)-N-[(R) or (S)-(2-aminopyridin-3-yl)[3-methyl-4-(propan-2-yl)phenyl]methyl]-4-fluoro-1-[2-(1H-1,2,3-triazol-5-yl)acetyl]pyrrolidine-2-carboxamide]: the concentration for half-maximal inhibition (IC50) in test [1] is 408 nM; in test [2] (Homo sapiens, HeLa, 24 h) it was 5790 nM. Consider `COc1ncccc1C(NC(=O)[C@@H]1C[C@@H](F)CN1C(=O)Cc1cnn[nH]1)c1ccc(C2(C)CC2)c(F)c1` (single isomer, unassigned) [Compound 626, (2S,4R)-4-fluoro-N-[(R) or (S)-[3-fluoro-4-(1-methylcyclopropyl)phenyl](2-methoxypyridin-3-yl)methyl]-1-[2-(1H-1,2,3-triazol-5-yl)acetyl]pyrrolidine-2-carboxamide], for which the IC50 in test [1] was 805 nM; in test [2] (Homo sapiens, HeLa, 24 h), over 30000 nM.

On to `Cc1ncccc1C(NC(=O)[C@@H]1C[C@@H](F)CN1C(=O)Cc1cnn[nH]1)c1ccc(C2(C)CC2)c(F)c1` (single isomer, unassigned) [Compound 627, (2S,4R)-4-fluoro-N-[(R) or (S)-[3-fluoro-4-(1-methylcyclopropyl)phenyl](2-methylpyridin-3-yl)methyl]-1-[2-(1H-1,2,3-triazol-5-yl)acetyl]pyrrolidine-2-carboxamide], for which the IC50 in test [1] came to 1620 nM; in test [2] (Homo sapiens, HeLa, 24 h), 29500 nM. For `CC(C)c1ccc(C(NC(=O)[C@@H]2C[C@@H](F)CN2C(=O)Cc2cnn[nH]2)c2ncc3ccccn23)nc1F` (single isomer, unassigned) [Compound 628, (2S,4R)-4-fluoro-N-[(R) or (S)-[6-fluoro-5-(propan-2-yl)pyridin-2-yl]({imidazo[1,5-a]pyridin-3-yl})methyl]-1-[2-(1H-1,2,3-triazol-5-yl)acetyl]pyrrolidine-2-carboxamide], the IC50 in test [1] was 2780 nM; in test [2] (Homo sapiens, HeLa, 24 h), over 30000 nM. As for `CC(C)c1ccc(C(NC(=O)[C@@H]2C[C@@H](F)CN2C(=O)Cc2cnn[nH]2)c2ncn3ccccc23)nc1F` (single isomer, unassigned) [Compound 629, (2S,4R)-4-fluoro-N-[(S) or (R)-[6-fluoro-5-(propan-2-yl)pyridin-2-yl]({imidazo[1,5-a]pyridin-1-yl})methyl]-1-[2-(1H-1,2,3-triazol-5-yl)acetyl]pyrrolidine-2-carboxamide], the IC50 in test [1] is 1480 nM; in test [2] (Homo sapiens, HeLa, 24 h) it was over 24000 nM. For the compound `CC(C)c1ccc(C(NC(=O)[C@@H]2C[C@@H](F)CN2C(=O)Cc2cnn[nH]2)c2ccc3cn[nH]c3c2)nc1F` (single isomer, unassigned) [Compound 633, (2S,4R)-4-fluoro-N-[(R) or (S)-[6-fluoro-5-(propan-2-yl)pyridin-2-yl](1H-indazol-6-yl)methyl]-1-[2-(1H-1,2,3-triazol-5-yl)acetyl]pyrrolidine-2-carboxamide], the concentration for half-maximal inhibition (IC50) is 1600 nM in test [1] and over 30000 nM in test [2]. As for `Cn1c(=O)[nH]c2c(C(NC(=O)[C@@H]3C[C@@H](F)CN3C(=O)Cc3cnn[nH]3)c3ccc(C4CC4)c(F)c3)cccc21` (single isomer, unassigned) [Compound 650, (2S,4R)-N-[(R) or (S)-(4-cyclopropyl-3-fluorophenyl)(1-methyl-2-oxo-2,3-dihydro-1H-1,3-benzodiazol-4-yl)methyl]-4-fluoro-1-[2-(1H-1,2,3-triazol-5-yl)acetyl]pyrrolidine-2-carboxamide], the IC50 is 1440 nM in test [1] and over 10000 nM in test [2] (Homo sapiens, HeLa, 24 h). As for `CC(C)c1ccc(C(NC(=O)[C@@H]2C[C@@H](F)CN2C(=O)Cc2cnn[nH]2)C2CC2)cc1F` (single isomer, unassigned) [Compound 652, (2S,4R)-N-[(S) or (R)-cyclopropyl[3-fluoro-4-(propan-2-yl)phenyl]methyl]-4-fluoro-1-[2-(1H-1,2,3-triazol-5-yl)acetyl]pyrrolidine-2-carboxamide], the IC50 in test [1] was found to be 1200 nM; in test [2] (Homo sapiens, HeLa, 24 h) it was 21600 nM. Regarding `CC(C)c1ccc([C@@H](NC(=O)[C@@H]2C[C@@H](F)CN2C(=O)Cn2cc(N3CCC3)nn2)c2ccccc2)nc1F` [Compound 787, (2S,4R)-1-{2-[4-(azetidin-1-yl)-1H-1,2,3-triazol-1-yl]acetyl}-4-fluoro-N-[(S)-[6-fluoro-5-(propan-2-yl)pyridin-2-yl](phenyl)methyl] pyrrolidine-2-carboxamide], inhibition in test [2] (Homo sapiens, HeLa, 24 h) was half-maximal at 130 nM (IC50). With `COc1nc(CC(=O)N2C[C@H](F)C[C@H]2C(=O)N[C@@H](c2ccccc2)c2ccc(C(C)C)c(F)n2)nn1C` [Compound 800, (2S,4R)-4-fluoro-N-[(S)-[6-fluoro-5-(propan-2-yl)pyridin-2-yl](phenyl)methyl]-1-[2-(5-methoxy-1-methyl-1H-1,2,4-triazol-3-yl)acetyl] pyrrolidine-2-carboxamide], the IC50 in test [2] (Homo sapiens, HeLa, 24 h) worked out at 180 nM. Consider `CC(C)c1ccc([C@@H](NC(=O)[C@@H]2C[C@@H](F)CN2C(=O)Cc2nc(C(F)(F)F)co2)c2ccccc2)nc1F` [Compound 801, (2S,4R)-4-fluoro-N-[(S)-[6-fluoro-5-(propan-2-yl)pyridin-2-yl](phenyl)methyl]-1-{2-[4-(trifluoromethyl)-1,3-oxazol-2-yl]acetyl} pyrrolidine-2-carboxamide], for which the IC50 in test [2] (Homo sapiens, HeLa, 24 h) was determined as 380 nM.
